{
  "source": "patent US5929093A",
  "about": "“Bifunctional acetylcholinesterase reactivators” (priority 1997, dated 1999)",
  "molecular_target": "T1, human red blood cell AChE (Homo sapiens, UniProt P22303)",
  "T1 construct": "human red blood cell AChE; from tissue; host or cells: human red blood cells",
  "T1 sequence (P22303 other isoform, or with tags, fused parts or gaps)": "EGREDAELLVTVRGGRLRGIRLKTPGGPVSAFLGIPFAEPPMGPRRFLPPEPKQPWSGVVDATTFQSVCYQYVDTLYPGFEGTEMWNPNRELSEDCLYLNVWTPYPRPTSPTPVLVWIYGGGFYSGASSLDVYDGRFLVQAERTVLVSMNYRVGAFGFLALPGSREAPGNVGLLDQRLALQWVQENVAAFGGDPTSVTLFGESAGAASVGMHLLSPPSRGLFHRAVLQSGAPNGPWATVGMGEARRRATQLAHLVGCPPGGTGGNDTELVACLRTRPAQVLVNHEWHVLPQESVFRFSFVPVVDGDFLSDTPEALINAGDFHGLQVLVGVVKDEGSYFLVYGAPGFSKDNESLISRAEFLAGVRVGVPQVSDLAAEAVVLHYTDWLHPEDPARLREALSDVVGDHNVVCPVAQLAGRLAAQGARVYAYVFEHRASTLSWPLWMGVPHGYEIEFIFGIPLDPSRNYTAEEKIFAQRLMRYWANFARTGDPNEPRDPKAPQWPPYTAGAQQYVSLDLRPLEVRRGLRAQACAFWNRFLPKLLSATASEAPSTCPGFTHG",
  "assay": "AChE reactivation assay with echothiophate-inhibited human red blood cell AChE",
  "assay_type": "biochemical",
  "conditions": "for activation at 1 µM: read-out: Percentages of AChE reactivation",
  "key": {"[1]": {"conditions": "single concentration 10^-6 M, added for 1 hour, AChE inhibited by echothiophate 10^-7 M, means ± standard errors of 4 measurements"}},
  "data": [
    {"smiles": "ON=Cc1cc[n+](CCCCCC[n+]2ccc(C=NO)cc2)cc1", "note": "[Compound 1a, 1,6-Hexylene-bis-N,N'-4-pyridiniumaldoxime dibromide]", "values": [
      {"measurement": "activation at 1 µM", "setting": "[1]", "value": "47 ± 1.8", "unit": "%"}
    ]},
    {"smiles": "ON=Cc1cc[n+](CCCCCCC[n+]2ccc(C=NO)cc2)cc1", "note": "[Compound 1b, 1,7-Heptylene-bis-N,N'-4-pyridiniumaldoxime dibromide]", "values": [
      {"measurement": "potency in reactivation relative to 2-PAM (full dose-response curves)", "setting": "full dose-response curves, compared with 2-PAM", "value": "ten-fold more potent"},
      {"measurement": "activation at 1 µM", "setting": "[1]", "value": "61 ± 3.2", "unit": "%"}
    ]},
    {"smiles": "ON=Cc1cc[n+](CCCCCCCC[n+]2ccc(C=NO)cc2)cc1", "note": "[Compound 1c, 1,8-Octylene-bis-N,N'-4-pyridiniumaldoxime dibromide]", "values": [
      {"measurement": "activation at 1 µM", "setting": "[1]", "value": "44 ± 1.7", "unit": "%"}
    ]},
    {"smiles": "ON=Cc1cc[n+](CCCCCCCCC[n+]2ccc(C=NO)cc2)cc1", "note": "[Compound 1d, 1,9-Nonylene-bis-N,N'-4-pyridiniumaldoxime dibromide]", "values": [
      {"measurement": "activation at 1 µM", "setting": "[1]", "value": "31 ± 2.3", "unit": "%"}
    ]},
    {"smiles": "C[n+]1ccccc1C=NO", "note": "[Compound 2-PAM, 2-pralidoxime, reference compound]", "values": [
      {"measurement": "Percentages of AChE reactivation", "setting": "[1]", "value": "17 ± 2.8", "unit": "%"},
      {"measurement": "activation at 1 µM", "setting": "[1]", "value": 17, "unit": "%"}
    ]},
    {"smiles": "ON=Cc1cccc[n+]1CCCCCC[n+]1ccccc1C=NO", "note": "[Compound 3a, 1,6-Hexylene-bis-N,N'-2-pyridinium aldoxime dichloride]", "values": [
      {"measurement": "activation at 1 µM", "setting": "[1]", "value": "67 ± 0.8", "unit": "%"}
    ]},
    {"smiles": "ON=Cc1cccc[n+]1CCCCCCC[n+]1ccccc1C=NO", "note": "[Compound 3b, 1,7-Heptylene-bis-N,N'-2-pyridiniumaldoxime dichloride]", "values": [
      {"measurement": "activation at 1 µM", "setting": "[1]", "value": "80 ± 3.7", "unit": "%"}
    ]},
    {"smiles": "ON=Cc1cccc[n+]1CCCCCCCC[n+]1ccccc1C=NO", "note": "[Compound 3c, 1,8-Octylene-bis-N,N'-2-pyridiniumaldoxime dichloride]", "values": [
      {"measurement": "activation at 1 µM", "setting": "[1]", "value": "69 ± 4.7", "unit": "%"}
    ]},
    {"smiles": "ON=Cc1cccc[n+]1CCCCCCCCC[n+]1ccccc1C=NO", "note": "[Compound 3d, 1,9-Nonylene-bis-N,N'-2-pyridiniumaldoxime dichloride]", "values": [
      {"measurement": "activation at 1 µM", "setting": "[1]", "value": "58 ± 0.5", "unit": "%"}
    ]}
  ]
}
